Measurements taken from patent US9216960B2, “Spiro[2.4]heptanes for treatment of Flaviviridae infections” (University of Georgia Research Foundation, Inc., priority 2012, dated 2015).

Tests used:
[1] = test system: hepatitis C virus genotype 1A; details: Hu7 RNA replicon assay; cited from earlier work
[2] = test system: hepatitis C virus genotype 1B; details: Hu7 RNA replicon assay; cited from earlier work

| melting point [°C] | SMILES | EC50 [1] [nM] | EC50 [2] [nM] |
| --- | --- | --- | --- |
|  | Nc1ncnc2c1ncn2[C@H]1[C@H](O)[C@H](O)[C@@H](CO)C12CC2 [cyclopropy-spirocarbocyclic adenosine, (4R,5S,6R,7R)-4-(6-amino-9H-pur-9-yl)-7-(hydroxymethyl)spiro[2.4]heptane-5,6 diol] | 273 | 368 |
| 114 to 116 | O=c1ccn([C@H]2[C@H](O)[C@H](O)[C@@H](CO)C23CC3)c(=O)[nH]1 |  |  |
